Source: ChEMBL document CHEMBL1201862, “PubChem BioAssay data set” (2004)
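Five compound concentrations were applied to cells in 96-well plates for 48 hours; endpoints were derived by simple linear interpolation of the resulting dose-response curve. GI50 = concentration required for 50% inhibition of growth.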 Active and inactive are the calls of the source. Rule as the data show it: active = GI50 up to about 1.1 µM and inactive = higher.

Columns and labels:
Test in all cases: growth of human tumour cells (NCI), 48 h
DU-145 = test system: DU-145
ACHN = test system: ACHN
SNB-19 = test system: SNB-19
UACC-257 = test system: UACC-257
OVCAR-3 = test system: OVCAR-3
SF-295 = test system: SF-295
A549 = test system: A549
NCI-H23 = test system: NCI-H23
OVCAR-5 = test system: OVCAR-5
MCF7 = test system: MCF7
COLO 205 = test system: COLO 205
MOLT-4 = test system: MOLT-4
PC-3 = test system: PC-3
NCI-H226 = test system: NCI-H226
MDA-MB-435 = test system: MDA-MB-435
NCI-H460 = test system: NCI-H460
Hs-578T = test system: Hs-578T
UO-31 = test system: UO-31
RPMI-8226 = test system: RPMI-8226
Malme-3M = test system: Malme-3M
U-251 = test system: U-251
CAKI-1 = test system: CAKI-1
HCT-116 = test system: HCT-116
SN12C = test system: SN12C
T47D = test system: T47D
MDA-MB-231 = test system: MDA-MB-231
HT-29 = test system: HT-29
CCRF-CEM = test system: CCRF-CEM
OVCAR-8 = test system: OVCAR-8
SK-OV-3 = test system: SK-OV-3
786-0 = test system: 786-0
SK-MEL-28 = test system: SK-MEL-28
OVCAR-4 = test system: OVCAR-4
K562 = test system: K562
HOP-62 = test system: HOP-62
NCI/ADR-RES = test system: NCI/ADR-RES
EKVX = test system: EKVX
HL-60 = test system: HL-60
MDA-N = test system: MDA-N
SK-MEL-5 = test system: SK-MEL-5
NCI-H522 = test system: NCI-H522
TK-10 = test system: TK-10
SF-268 = test system: SF-268
LOX IMVI = test system: LOX IMVI
M14 = test system: M14
RXF 393 = test system: RXF 393
SNB-75 = test system: SNB-75
BT-549 = test system: BT-549
KM12 = test system: KM12
HCT-15 = test system: HCT-15
UACC-62 = test system: UACC-62
SR = test system: SR
IGROV-1 = test system: IGROV-1
HCC 2998 = test system: HCC 2998
SK-MEL-2 = test system: SK-MEL-2
SW-620 = test system: SW-620

Compound: O=c1[nH]c(=O)n(C2CC(O)C(CO)O2)cc1/N=N/NCCc1ccccc1 (centres undefined)
- GI50 (DU-145): > 100 µM (inactive)
- GI50 (ACHN): > 100 µM (inactive)
- GI50 (SNB-19): > 100 µM (inactive)
- GI50 (UACC-257): > 100 µM (inactive)
- GI50 (OVCAR-3): > 100 µM (inactive)
- GI50 (SF-295): > 100 µM (inactive)
- GI50 (A549): > 100 µM (inactive)
- GI50 (NCI-H23): > 100 µM (inactive)
- GI50 (OVCAR-5): > 100 µM (inactive)
- GI50 (MCF7): > 100 µM (inactive)
- GI50 (COLO 205): > 100 µM (inactive)
- GI50 (MOLT-4): > 100 µM (inactive)
- GI50 (PC-3): > 100 µM (inactive)
- GI50 (NCI-H226): > 100 µM (inactive)
- GI50 (MDA-MB-435): > 100 µM (inactive)
- GI50 (NCI-H460): > 100 µM (inactive)
- GI50 (Hs-578T): > 100 µM (inactive)
- GI50 (UO-31): > 100 µM (inactive)
- GI50 (RPMI-8226): > 100 µM (inactive)
- GI50 (Malme-3M): > 100 µM (inactive)
- GI50 (U-251): > 100 µM (inactive)
- GI50 (CAKI-1): > 100 µM (inactive)
- GI50 (HCT-116): > 100 µM (inactive)
- GI50 (SN12C): > 100 µM (inactive)
- GI50 (T47D): > 100 µM (inactive)
- GI50 (MDA-MB-231): > 100 µM (inactive)
- GI50 (HT-29): > 100 µM (inactive)
- GI50 (CCRF-CEM): > 100 µM (inactive)
- GI50 (OVCAR-8): > 100 µM (inactive)
- GI50 (SK-OV-3): > 100 µM (inactive)
- GI50 (786-0): > 100 µM (inactive)
- GI50 (SK-MEL-28): > 100 µM (inactive)
- GI50 (OVCAR-4): > 100 µM (inactive)
- GI50 (K562): > 100 µM (inactive)
- GI50 (HOP-62): > 100 µM (inactive)
- GI50 (NCI/ADR-RES): > 100 µM (inactive)
- GI50 (EKVX): > 100 µM (inactive)
- GI50 (HL-60): > 100 µM (inactive)
- GI50 (MDA-N): > 100 µM (inactive)
- GI50 (SK-MEL-5): > 100 µM (inactive)
- GI50 (NCI-H522): > 100 µM (inactive)
- GI50 (TK-10): > 100 µM (inactive)
- GI50 (SF-268): > 100 µM (inactive)
- GI50 (LOX IMVI): > 100 µM (inactive)
- GI50 (M14): > 100 µM (inactive)
- GI50 (RXF 393): > 100 µM (inactive)
- GI50 (SNB-75): > 100 µM (inactive)
- GI50 (BT-549): > 10 µM (inactive)
- GI50 (KM12): > 100 µM (inactive)
- GI50 (HCT-15): > 100 µM
- GI50 (UACC-62): > 100 µM (inactive)
- GI50 (SR): > 100 µM (inactive)
- GI50 (IGROV-1): > 100 µM (inactive)

Compound: CCC1(CC)C(=O)NN(C(=O)c2ccc(Cl)cc2)C1=O
- GI50 (DU-145): > 100 µM (inactive)
- GI50 (ACHN): > 100 µM (inactive)
- GI50 (SNB-19): > 100 µM (inactive)
- GI50 (UACC-257): > 100 µM (inactive)
- GI50 (OVCAR-3): > 100 µM (inactive)
- GI50 (SF-295): > 100 µM (inactive)
- GI50 (A549): > 100 µM (inactive)
- GI50 (NCI-H23): > 100 µM (inactive)
- GI50 (OVCAR-5): > 100 µM (inactive)
- GI50 (MCF7): > 100 µM (inactive)
- GI50 (COLO 205): > 100 µM (inactive)
- GI50 (MOLT-4): > 100 µM (inactive)
- GI50 (PC-3): > 100 µM (inactive)
- GI50 (NCI-H226): > 100 µM (inactive)
- GI50 (MDA-MB-435): > 100 µM (inactive)
- GI50 (HCC 2998): > 100 µM (inactive)
- GI50 (NCI-H460): > 100 µM (inactive)
- GI50 (Hs-578T): > 100 µM (inactive)
- GI50 (UO-31): > 100 µM (inactive)
- GI50 (RPMI-8226): > 100 µM (inactive)
- GI50 (Malme-3M): 0.23 µM (active)
- GI50 (U-251): > 100 µM (inactive)
- GI50 (CAKI-1): > 100 µM (inactive)
- GI50 (HCT-116): > 100 µM (inactive)
- GI50 (SN12C): > 100 µM (inactive)
- GI50 (T47D): > 100 µM (inactive)
- GI50 (MDA-MB-231): > 100 µM (inactive)
- GI50 (HT-29): > 100 µM (inactive)
- GI50 (CCRF-CEM): > 100 µM (inactive)
- GI50 (OVCAR-8): > 100 µM (inactive)
- GI50 (SK-OV-3): > 100 µM (inactive)
- GI50 (786-0): > 100 µM (inactive)
- GI50 (SK-MEL-2): > 100 µM (inactive)
- GI50 (SK-MEL-28): > 100 µM (inactive)
- GI50 (OVCAR-4): > 100 µM (inactive)
- GI50 (K562): > 100 µM (inactive)
- GI50 (HOP-62): > 100 µM (inactive)
- GI50 (NCI/ADR-RES): > 100 µM (inactive)
- GI50 (EKVX): > 100 µM (inactive)
- GI50 (HL-60): > 100 µM (inactive)
- GI50 (MDA-N): > 100 µM (inactive)
- GI50 (SK-MEL-5): > 100 µM (inactive)
- GI50 (NCI-H522): 32.1 µM (inactive)
- GI50 (TK-10): > 100 µM (inactive)
- GI50 (SF-268): > 100 µM (inactive)
- GI50 (LOX IMVI): > 100 µM (inactive)
- GI50 (M14): > 100 µM (inactive)
- GI50 (RXF 393): > 100 µM (inactive)
- GI50 (SNB-75): > 100 µM (inactive)
- GI50 (BT-549): > 100 µM (inactive)
- GI50 (KM12): > 100 µM (inactive)
- GI50 (HCT-15): > 100 µM
- GI50 (SW-620): > 100 µM (inactive)
- GI50 (UACC-62): > 100 µM (inactive)
- GI50 (SR): > 100 µM (inactive)
- GI50 (IGROV-1): > 100 µM (inactive)
